Series [1] relates to ct-DNA. The series can be described thus: Fluorimetric titration with ct-DNA, Scatchard equation. It counts as binding, calf. Also noted: key: The changes were too small to allow an accurate calculation of the binding constant. Particulars: I = 0.05 M. The protocol: (§1) Experiments were conducted in an aqueous buffer solution (pH = 7.0 or pH= 5.0, I = 0.05 M, sodium cacodylate buffer). For the UV-Vis spectra were used Varian Cary 100 Bio spectrometer, for fluorescence spectra we used the Varian Cary Eclipse fluorimeter and for CD spectra we used the JASCO J815 spectropolarimeter, all conducted at 25.0 °C using appropriate quartz cuvettes (path length: 1 cm).
(§2) Polynucleotides were purchased as noted: poly dAdT-poly dAdT, poly dGdC-poly dGdC, poly A-poly U (ds-RNA), (Sigma-Aldrich, Schnelldorf, Germany), calf thymus (ct)-DNA (Sigma-Aldrich, Schnelldorf, Germany) and dissolved in sodium cacodylate buffer, I = 0.05 M, pH = 7.0. The ct-DNA was sonicated and filtered through a 0.45 µm filter to obtain mostly short (ca. 100 base pairs) rod-like B-helical DNA fragments. The concentration of DNA or RNA was determined spectroscopically as the c(nucleobase) using producer-provided molar extinction coefficients.
Fortunately, strong emission from the compounds studied allowed fluorimetric titrations to be performed at much lower concentrations of the dyes (c = 5 × 10^−8 M), thus preventing precipitation of non-methylated 1 or 2, and allowing for the collection of numerous data points at excess of DNA/RNA binding sites over c(dye). […] Intriguingly, mixed sequence ct-DNA caused emission quenching of 1M at an excess of dye over ct-DNA (r > 0.1), and such quenching could be attributed to aggregation of 1M along DNA, while at an excess of ct-DNA over dye (r << 0.1), emission increased. The emission of 2M was indiscriminately quenched by all ds-DNA/RNA (Figure 2d).
(§3) Processing of fluorimetric titrations by means of the Scatchard equation [56, 57] yielded binding constants (Table 2). […] Affinities of 1 and 2 toward BSA were the same at both pH values, supporting the conclusion that neutral forms of 1 and 2 were bound.

Another series relates to A549 cells. As to the kind of experiment: MTT cell viability assay, A549, with or without UV light. It counts as cell-based, human. Particulars: A549. The protocol: Cells. Commercially available from American Type Culture Collection (ATCC), human epithelial lung adenocarcinoma A549 (ATCC® CCL-185™) and human normal lung fibroblast WI-38 (ATCC® CCL-75™) were grown according to supplier’s conditions, namely in Dulbecco Modified Eagle’s Medium (DMEM, Sigma Aldrich, St. Louis, MO, USA) supplemented with 10% of fetal bovine serum (FBS, Sigma Aldrich, USA). Cells were incubated in the cell incubator (Thermo Fischer Scientific, Waltham, MA, USA) at 37 °C and 5% CO2 in a humidified atmosphere.
Cell viability assay. In order to obtain a 10 mM stock solution chemical compounds (2M, 1, and 1M) were sterilely diluted in an appropriate volume of dimethyl sulfoxide solution (DMSO, Gram-Mol, Zagreb, Croatia). Solutions were kept in the dark and stored at 4 °C. The cytotoxic effects of each compound were assayed on A549 and WI-38 cells. […] Briefly, cells were seeded in 96-well tissue culture plates and 24 h later treated with 2M, 1, or 1M in the concentration range of 10–0.1 μM. Cells treated with the same dilutions of DMSO represented the control, while cells treated only with DMEM (10% FBS) represented the negative control. After 72 h, the media was removed, MTT solution was added into each well, and the plate was incubated (37 °C, 5% CO2) for 3 h. The resulting MTT-formazan products were dissolved using DMSO, and their absorbance at 600 nm was measured using a microplate reader.
For determining the effect of UV exposure, cells were seeded on two plates and treated with working solutions of the respective compounds as previously described. Plates were incubated (37 °C, 5% CO2) for 90 min, allowing the compounds to enter the cells. Then, one plate was exposed to UV light (Luzchem reactor, 350 nm, 8 lamps, in total 8 W, dose 50.6 mWm^−2; ~18 cm lamp to cell-plate) for 5 min, 3 days in a row at the same time each day, while the other plate was left in the cell incubator in the dark and served as a control.
(Tetrazolium dyes change colour on reduction, which living cells bring about.)

The nature of series [2]: pKa from pH dependence of UV/vis spectrum. It is filed as physicochemical. The settings on record: water (0.001 M HCl in miliQ water, titrated with NaOH), UV/vis spectra vs pH in water, c = 2.0 × 10^−5 M.
Another series is described as follows: Solubility in water. It is filed as physicochemical.
Series [3] relates to ct-DNA. As to the kind of experiment: Thermal denaturation of ct-DNA (∆Tm). It counts as binding, calf. The settings on record: r = 0.1, pH 5.0, sodium cacodylate buffer, I = 50 mM. The protocol:
as §1, §2
Thermal denaturation of ds-DNA, ds-RNA and their complexes with studied compounds was performed by monitoring the absorption change at 260 nm as a function of temperature. Tm values are the midpoints of the transition curves determined from the maximum of the first derivative and checked graphically by the tangent method. The ∆Tm values were calculated by subtracting the Tm of the free nucleic acid from the Tm of the complex. Every ∆Tm value here reported was the average of at least two measurements. The error in ∆Tm is ± 0.5 °C.

The target of the next series is BSA (Bos taurus, UniProt P02769). The series can be described thus: Fluorimetric titration with BSA, Scatchard equation. The settings on record: pH 7, sodium cacodylate buffer, I = 0.05 M; read-out: Binding constant logKs BSA (converted). It is filed as binding, bovine. The procedure:
as §1
As the pharmacokinetic properties of small molecules often depend on a binding affinity toward transport proteins (such as serum albumin), we performed fluorimetric titrations with BSA. The emission of both 1M and 2M (Supplementary Information, Figures S15 and S16), was strongly quenched, with compound 2M showing a lower affinity in comparison to ds-DNA/RNA, while the affinity of 1M was similar to that towards ds-DNA/RNA (Table 2).
as §3

Where only a bound is given, the exact number is not on record here.

Chain of BSA (P02769 25-607): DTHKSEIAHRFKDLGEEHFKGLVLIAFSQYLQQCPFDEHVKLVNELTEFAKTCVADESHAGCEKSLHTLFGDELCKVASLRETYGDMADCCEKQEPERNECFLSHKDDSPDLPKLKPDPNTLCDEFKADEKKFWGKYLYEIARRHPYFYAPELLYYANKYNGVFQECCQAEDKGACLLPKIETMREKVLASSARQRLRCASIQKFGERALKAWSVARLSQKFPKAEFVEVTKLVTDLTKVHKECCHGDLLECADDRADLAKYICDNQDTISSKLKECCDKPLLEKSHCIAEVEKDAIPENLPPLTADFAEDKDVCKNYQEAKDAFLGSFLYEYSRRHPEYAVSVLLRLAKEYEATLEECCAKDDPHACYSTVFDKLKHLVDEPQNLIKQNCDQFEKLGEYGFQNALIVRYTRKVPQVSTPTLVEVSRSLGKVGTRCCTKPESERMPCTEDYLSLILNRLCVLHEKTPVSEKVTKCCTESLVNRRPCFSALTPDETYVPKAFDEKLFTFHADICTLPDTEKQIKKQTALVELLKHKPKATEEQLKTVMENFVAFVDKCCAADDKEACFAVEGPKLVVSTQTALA

Consider `c1cc(-c2cc3ccc4cc(-c5ccncc5)cc5ccc(c2)c3c45)ccn1` [compound 2], for which the “Binding constant logKs ct-DNA” value is recorded as 5.7 in the series with ct-DNA [1] (pH 5, sodium cacodylate buffer) and “b” in the series on ct-DNA [1] (pH 7, sodium cacodylate buffer). Also, the “Cytotoxic effect (cell survival, Figure S25)” value in the series with A549 cells is given as “no cytotoxic effect”. Also, the pKa – broadly, the pH at which an ionisable group is half protonated – in series [2] is under 4. Moreover, in the series “Solubility in water”, the Solubility in water entry is listed as “poorly soluble in water”. For the same compound, the “∆Tm ct-DNA” value in the series on ct-DNA [3] was determined as 1.5 °C. Moreover, on BSA, the Kd was 5.01 µM.

The values are drawn from publication PMC9696974 (Pharmaceutics, 2022).
